This note sets out measurements from ChEMBL document CHEMBL1909046, “DrugMatrix in vitro pharmacology data”.

One experiment deals with T1, Leukotriene C4 synthase (Cavia porcellus, UniProt A6XA80).
T1 sequence (A6XA80 whole entry): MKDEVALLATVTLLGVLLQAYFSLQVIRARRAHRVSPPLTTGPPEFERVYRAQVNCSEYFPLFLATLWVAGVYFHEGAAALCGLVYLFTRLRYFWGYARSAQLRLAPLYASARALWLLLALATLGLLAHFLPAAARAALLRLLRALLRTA
As to the kind of experiment: biochemical. Format: tissue-based, Lung.

For another experiment, the target named is Melanocortin receptor 3 (Homo sapiens, UniProt P41968). The experiment is classed as cell membranes, HEK293, Membrane. Further: in other assays of this panel Not Active means under 50% inhibition at 10 µM.
Chain of Melanocortin receptor 3 (P41968 whole entry): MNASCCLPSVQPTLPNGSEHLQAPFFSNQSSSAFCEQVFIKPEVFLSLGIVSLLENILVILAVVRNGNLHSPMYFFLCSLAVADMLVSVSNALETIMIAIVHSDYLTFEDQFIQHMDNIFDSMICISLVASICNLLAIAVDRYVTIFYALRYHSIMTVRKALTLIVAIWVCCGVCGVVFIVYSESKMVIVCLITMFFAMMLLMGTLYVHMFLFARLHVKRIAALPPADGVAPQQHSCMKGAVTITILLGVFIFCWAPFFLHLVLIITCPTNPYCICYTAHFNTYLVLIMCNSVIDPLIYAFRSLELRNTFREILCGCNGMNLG
The target of a further experiment is Melanocortin receptor 4 (Homo sapiens, UniProt P32245). The experiment is classed as cell membranes, Membrane. The following applies: hek293. Further: in other assays of this panel Not Active means under 50% inhibition at 10 µM.
Chain of Melanocortin receptor 4 (P32245 whole entry): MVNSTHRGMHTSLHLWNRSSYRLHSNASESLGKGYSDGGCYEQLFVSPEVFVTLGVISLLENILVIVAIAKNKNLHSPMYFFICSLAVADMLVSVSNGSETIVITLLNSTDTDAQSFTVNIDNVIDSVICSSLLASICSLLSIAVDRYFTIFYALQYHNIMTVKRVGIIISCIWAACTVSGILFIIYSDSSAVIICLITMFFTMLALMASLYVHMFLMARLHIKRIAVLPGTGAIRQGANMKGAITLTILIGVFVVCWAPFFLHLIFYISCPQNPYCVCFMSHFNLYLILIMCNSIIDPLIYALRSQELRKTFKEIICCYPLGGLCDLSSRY
Experiment [1] has as its target T2, Amine oxidase [flavin-containing] A (Homo sapiens, UniProt P21397).
T2 sequence (P21397 whole entry): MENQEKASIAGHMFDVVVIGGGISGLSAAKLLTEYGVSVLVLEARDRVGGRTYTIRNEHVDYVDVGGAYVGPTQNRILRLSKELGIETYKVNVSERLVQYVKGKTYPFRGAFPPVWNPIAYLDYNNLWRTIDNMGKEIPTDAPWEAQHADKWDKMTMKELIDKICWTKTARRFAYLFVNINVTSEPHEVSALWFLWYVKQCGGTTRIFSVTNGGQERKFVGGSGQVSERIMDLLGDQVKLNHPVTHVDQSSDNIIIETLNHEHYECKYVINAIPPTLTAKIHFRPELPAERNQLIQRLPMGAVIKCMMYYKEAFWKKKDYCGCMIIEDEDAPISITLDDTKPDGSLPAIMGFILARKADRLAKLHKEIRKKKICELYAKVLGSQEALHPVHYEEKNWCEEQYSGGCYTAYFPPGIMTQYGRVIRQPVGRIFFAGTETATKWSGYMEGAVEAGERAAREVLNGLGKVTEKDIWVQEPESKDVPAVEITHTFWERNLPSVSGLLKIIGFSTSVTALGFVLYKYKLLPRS
In words: DRUGMATRIX: Monoamine Oxidase MAO-A enzyme inhibition (substrate: Kynuramine). The following applies: bti-tn-5b1-4; Not Active = under 50% inhibition at 10 µM. The arrangement: species or system BTI-TN-5B1-4.

In experiment [2] the target is T3, Muscarinic acetylcholine receptor M4 (Homo sapiens, UniProt P08173). Further: in other assays of this panel Not Active means under 50% inhibition at 10 µM.
T3 sequence (P08173 whole entry): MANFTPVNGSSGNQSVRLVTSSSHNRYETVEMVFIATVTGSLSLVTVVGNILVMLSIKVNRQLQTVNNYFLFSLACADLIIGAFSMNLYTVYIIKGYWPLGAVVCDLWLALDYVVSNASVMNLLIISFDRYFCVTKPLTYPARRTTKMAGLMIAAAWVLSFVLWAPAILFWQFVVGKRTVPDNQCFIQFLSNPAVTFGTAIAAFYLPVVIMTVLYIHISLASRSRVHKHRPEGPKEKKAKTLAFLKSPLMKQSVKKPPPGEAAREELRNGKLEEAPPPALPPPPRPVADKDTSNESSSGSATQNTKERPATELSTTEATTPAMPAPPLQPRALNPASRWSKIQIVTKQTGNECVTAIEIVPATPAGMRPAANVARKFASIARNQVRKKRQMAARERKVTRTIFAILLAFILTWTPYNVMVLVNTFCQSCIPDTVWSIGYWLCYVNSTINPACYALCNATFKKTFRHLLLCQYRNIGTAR
The experiment is classed as cell membranes, CHO-K1, Membrane.

Experiment [3] deals with cGMP-specific 3',5'-cyclic phosphodiesterase (Homo sapiens, UniProt O76074). As to the kind of experiment: DRUGMATRIX: Phosphodiesterase PDE5 enzyme inhibition (substrate: [3H]cGMP + cGMP). The experiment is classed as tissue-based, Platelet. Particulars: platelet; Not Active = under 50% inhibition at 10 µM.

`C#C[C@]1(O)CC[C@H]2[C@@H]3[C@H](C)CC4=C(CCC(=O)C4)[C@H]3CC[C@@]21C` [TIBOLONE]: the IC50 entry (against Leukotriene C4 synthase; against Melanocortin receptor 3 (hek293); against Melanocortin receptor 4; in experiment [1]; in experiment [2] (cho-k1); in experiment [3]) was “Not Active” in each case.

Consider `C[C@]12CCC(=O)C[C@@H]1CC[C@@H]1[C@@H]2CC[C@]2(C)[C@@H](O)CC[C@@H]12` [STANOLONE], for which the IC50 result (at Leukotriene C4 synthase; against Melanocortin receptor 3 (hek293); against Melanocortin receptor 4; in experiment [1]; in experiment [2] (cho-k1); in experiment [3]) was “Not Active” in each case.

For `CC(C)(C)NC[C@H](O)COc1cccc2c1CCCC2=O` [LEVOBUNOLOL], the IC50 entry (on Leukotriene C4 synthase; against Melanocortin receptor 3 (hek293); on Melanocortin receptor 4; in experiment [1]; in experiment [2] (cho-k1); in experiment [3]) was “Not Active” each time.

Take `CCN1CCCC1CNC(=O)c1cc(S(N)(=O)=O)ccc1OC` (configuration not stated) [SULPIRIDE]: the IC50 entry (at Leukotriene C4 synthase; against Melanocortin receptor 3 (hek293); on Melanocortin receptor 4; in experiment [1]; in experiment [2] (cho-k1); in experiment [3]) was “Not Active” in each case.

For `CCN(CC)C(=S)SSC(=S)N(CC)CC`, the IC50 entry (at Leukotriene C4 synthase; on Melanocortin receptor 3 (hek293); against Melanocortin receptor 4; in experiment [2] (cho-k1); in experiment [3]) was “Not Active” throughout.

For `OC[C@@H](O)[C@@H](O)[C@H](O)[C@H](O)CO` [MANNITOL], the IC50 entry (on Leukotriene C4 synthase; against Melanocortin receptor 3 (hek293); against Melanocortin receptor 4; in experiment [1]; in experiment [2] (cho-k1); in experiment [3]) was “Not Active” in each case.

Regarding `C[N+]1(C)[C@@H]2C[C@@H](OC(=O)[C@H](CO)c3ccccc3)C[C@H]1[C@@H]1O[C@@H]12.[Br-]` [METHSCOPOLAMINE BROMIDE], the IC50 result (at Leukotriene C4 synthase; against Melanocortin receptor 3 (hek293); against Melanocortin receptor 4; in experiment [1]; in experiment [3]) was “Not Active” in each case.

With `CCN(CC)CCNC(=O)c1cc(Cl)c(N)cc1OC` [METOCLOPRAMIDE], the IC50 entry (against Leukotriene C4 synthase; on Melanocortin receptor 3 (hek293); against Melanocortin receptor 4; in experiment [1]; in experiment [2] (cho-k1); in experiment [3]) was “Not Active” throughout.

With `CC(=O)O[C@]1(C(C)=O)CC[C@H]2[C@@H]3C[C@H](C)C4=CC(=O)CC[C@]4(C)[C@H]3CC[C@@]21C` [MEDROXYPROGESTERONE ACETATE], the IC50 entry (on Leukotriene C4 synthase; against Melanocortin receptor 3 (hek293); on Melanocortin receptor 4; in experiment [1]; in experiment [2] (cho-k1); in experiment [3]) was “Not Active” throughout.

With `Cc1ccnc(NS(=O)(=O)c2ccc(N)cc2)n1` [SULFAMERAZINE], the IC50 result (against Leukotriene C4 synthase; at Melanocortin receptor 3 (hek293); against Melanocortin receptor 4; in experiment [1]; in experiment [2] (cho-k1); in experiment [3]) was “Not Active” in each case.

In the case of `O=C(c1ccccc1)c1ccc2n1CCC2C(=O)O` (configuration not stated) [KETOROLAC], the IC50 entry (on Leukotriene C4 synthase; against Melanocortin receptor 3 (hek293); at Melanocortin receptor 4; in experiment [1]; in experiment [2] (cho-k1); in experiment [3]) was “Not Active” throughout.

For `Cc1nnc(NS(=O)(=O)c2ccc(N)cc2)s1` [SULFAMETHIZOLE], the IC50 entry (against Leukotriene C4 synthase; at Melanocortin receptor 3 (hek293); against Melanocortin receptor 4; in experiment [1]; in experiment [2] (cho-k1); in experiment [3]) was “Not Active” each time.

With `CCC(C)(C)C(=O)O[C@H]1C[C@@H](C)C=C2C=C[C@H](C)[C@H](CC[C@@H]3C[C@@H](O)CC(=O)O3)[C@H]21` [SIMVASTATIN], the IC50 entry (against Leukotriene C4 synthase; against Melanocortin receptor 3 (hek293); on Melanocortin receptor 4; in experiment [1]; in experiment [2] (cho-k1); in experiment [3]) was “Not Active” throughout.

For the molecule `Oc1ccc(/C=C/c2cc(O)cc(O)c2)cc1` [RESVERATROL], the IC50 entry (against Leukotriene C4 synthase; on Melanocortin receptor 3 (hek293); on Melanocortin receptor 4; in experiment [2] (cho-k1); in experiment [3]) was “Not Active” each time.

In the case of `Cc1cnc(NC(=O)C2=C(O)c3ccccc3S(=O)(=O)N2C)s1` [MELOXICAM], the IC50 entry (on Leukotriene C4 synthase; against Melanocortin receptor 3 (hek293); against Melanocortin receptor 4; in experiment [1]; in experiment [2] (cho-k1); in experiment [3]) was “Not Active” each time.

Regarding `CC[C@H](C)[C@@H](CO[C@@H](Cc1ccccc1)C(=O)N[C@@H](CCS(C)(=O)=O)C(=O)OC(C)C)NC[C@@H](N)CS`, the IC50 entry is “Not Active” against Leukotriene C4 synthase; 3390 nM on Melanocortin receptor 3 (read-out: IC50); “Not Active” on Melanocortin receptor 4; “Not Active” in experiment [1]; “Not Active” in experiment [2] (cho-k1); “Not Active” in experiment [3]. In addition, on Melanocortin receptor 3 (read-out: Ki), the Ki was determined as 2960 nM.

On to `O=C1CC[C@@]2(O)[C@H]3Cc4ccc(O)c5c4[C@@]2(CCN3CC2CC2)[C@H]1O5` [NALTREXONE], for which the IC50 result (at Leukotriene C4 synthase; against Melanocortin receptor 3 (hek293); against Melanocortin receptor 4; in experiment [1]; in experiment [2] (cho-k1); in experiment [3]) was “Not Active” in each case.

On to `CNCCCC12CCC(c3ccccc31)c1ccccc12` [MAPROTILINE], for which the IC50 entry was “Not Active” against Leukotriene C4 synthase; “Not Active” against Melanocortin receptor 3 (hek293); “Not Active” against Melanocortin receptor 4; “Not Active” in experiment [1]; 413 nM in experiment [2] (read-out: IC50); “Not Active” in experiment [3]. Besides, the Ki in experiment [2] (read-out: Ki) is 58 nM.

With `CN(C)CCC=C1c2ccccc2COc2ccccc21` [DOXEPIN], the IC50 result (on Leukotriene C4 synthase; against Melanocortin receptor 3 (hek293); against Melanocortin receptor 4; in experiment [1]; in experiment [3]) was “Not Active” throughout.

Regarding `C=CCc1ccc2c(c1)OCO2` [SAFROLE], the IC50 entry (against Leukotriene C4 synthase; against Melanocortin receptor 3 (hek293); against Melanocortin receptor 4; in experiment [1]; in experiment [2] (cho-k1); in experiment [3]) was “Not Active” in each case.

As for `O=[As][O-].[Na+]` [SODIUM ARSENITE], the IC50 entry (at Leukotriene C4 synthase; on Melanocortin receptor 3 (hek293); against Melanocortin receptor 4; in experiment [1]; in experiment [2] (cho-k1); in experiment [3]) was “Not Active” in each case.

Take `Cc1cn([C@H]2C=C[C@@H](CO)O2)c(=O)[nH]c1=O` [STAVUDINE]: the IC50 entry (against Leukotriene C4 synthase; against Melanocortin receptor 3 (hek293); against Melanocortin receptor 4; in experiment [1]; in experiment [2] (cho-k1); in experiment [3]) was “Not Active” in each case.

On to `COC(=O)Nc1nc2ccc(C(=O)c3ccccc3)cc2[nH]1` [MEBENDAZOLE], for which the IC50 entry (against Leukotriene C4 synthase; against Melanocortin receptor 3 (hek293); against Melanocortin receptor 4; in experiment [1]; in experiment [2] (cho-k1); in experiment [3]) was “Not Active” throughout.

`CC[C@H](C)C(=O)O[C@H]1CCC=C2C=C[C@H](C)[C@H](CC[C@@H]3C[C@@H](O)CC(=O)O3)[C@H]21` [MEVASTATIN]: the IC50 entry (on Leukotriene C4 synthase; against Melanocortin receptor 3 (hek293); against Melanocortin receptor 4; in experiment [1]; in experiment [2] (cho-k1); in experiment [3]) was “Not Active” throughout.

Take `Cc1cc2c(s1)Nc1ccccc1N=C2N1CCN(C)CC1` [OLANZAPINE]: the IC50 result (against Leukotriene C4 synthase; at Melanocortin receptor 3 (hek293); against Melanocortin receptor 4; in experiment [1]; in experiment [3]) was “Not Active” throughout.
